Experimental data from PubChem BioAssay (NCI).
“And” between values parts separate entries of the source, which are not always exact repeats. Equal values may be shown once.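 A five-concentration, 48-hour dose response in 96-well plates underlies each endpoint, interpolated linearly between surrounding concentrations. GI50: concentration for 50% inhibition of growth. TGI: total growth inhibition.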

Legend:
Experiment in all cases: growth of human tumour cells (NCI), 48 h
HS 578T breast = tested on: HS 578T breast
UACC-62 melanoma = tested on: UACC-62 melanoma
HCC-2998 colon = tested on: HCC-2998 colon
PC-3 prostate = tested on: PC-3 prostate
HOP-92 NSCLC = tested on: HOP-92 NSCLC
SK-MEL-2 melanoma = tested on: SK-MEL-2 melanoma
HL-60(TB) leukemia = tested on: HL-60(TB) leukemia
NCI-H460 lung = tested on: NCI-H460 lung
RPMI-8226 leukemia = tested on: RPMI-8226 leukemia
A498 renal = tested on: A498 renal

CSc1ccc(C(=O)/C=C/c2ccccc2Cl)cc1
GI50 (HS 578T breast): 21.9 µM
TGI (HS 578T breast): 55.6 µM
GI50 (UACC-62 melanoma): 15.7 µM
TGI (UACC-62 melanoma): 33.5 µM
GI50 (HCC-2998 colon): 13.1 µM
TGI (HCC-2998 colon): 28.7 µM
GI50 (PC-3 prostate): 16.5 µM
TGI (PC-3 prostate): 32.4 µM
GI50 (HOP-92 NSCLC): 15.5 µM
TGI (HOP-92 NSCLC): 32 µM
GI50 (SK-MEL-2 melanoma): 16.2 µM
TGI (SK-MEL-2 melanoma): 37.7 µM
GI50 (HL-60(TB) leukemia): 19.5 µM
TGI (HL-60(TB) leukemia): 90.3 µM
GI50 (NCI-H460 lung): 25.2 µM
TGI (NCI-H460 lung): 70 µM
GI50 (RPMI-8226 leukemia): 7.11 µM
TGI (RPMI-8226 leukemia): 37.7 µM

CC(=O)O[C@H]1CC2C=CC3C(CCC31)O2 (stereo not given in full)
TGI (UACC-62 melanoma): > 100 µM
TGI (HCC-2998 colon): > 100 µM
TGI (HL-60(TB) leukemia): > 100 µM
TGI (NCI-H460 lung): > 100 µM

CCCCCCCC(=O)[O][Hg][CH2]C1COC([CH2][Hg][O]C(=O)CCCCCCC)CO1 (stereo not given)
GI50 (HS 578T breast): 16.8 µM
TGI (HS 578T breast): 46.3 µM
GI50 (UACC-62 melanoma): 17.5 µM
TGI (UACC-62 melanoma): 45.3 µM
GI50 (HCC-2998 colon): 18 µM
TGI (HCC-2998 colon): 33.1 µM
GI50 (PC-3 prostate): 13.7 µM
TGI (PC-3 prostate): 26.7 µM
GI50 (HOP-92 NSCLC): 5.85 µM
TGI (HOP-92 NSCLC): 17.1 µM
GI50 (HL-60(TB) leukemia): 2.77 µM
TGI (HL-60(TB) leukemia): > 100 µM
GI50 (NCI-H460 lung): 18.2 µM
TGI (NCI-H460 lung): 37.4 µM
GI50 (RPMI-8226 leukemia): 3.84 µM
TGI (RPMI-8226 leukemia): > 100 µM

O=[N+]([O-])c1cc2c([N+](=O)[O-])cccc2o1
TGI (HS 578T breast): 43.8 µM
TGI (UACC-62 melanoma): 27.7 µM
TGI (HCC-2998 colon): 35.7 µM
TGI (PC-3 prostate): 36.1 µM
TGI (A498 renal): 43.5 µM
TGI (HOP-92 NSCLC): 36 µM
TGI (SK-MEL-2 melanoma): 25.4 µM
TGI (NCI-H460 lung): > 100 µM
TGI (RPMI-8226 leukemia): 11.4 µM

CN(C)c1ccc2nc(CC(O)(C(F)(F)F)C(F)(F)F)ccc2c1
TGI (HS 578T breast): > 10 µM
TGI (UACC-62 melanoma): > 10 µM
TGI (HCC-2998 colon): > 10 µM
TGI (PC-3 prostate): > 10 µM
TGI (A498 renal): > 10 µM
TGI (HOP-92 NSCLC): > 10 µM
TGI (SK-MEL-2 melanoma): > 10 µM
TGI (NCI-H460 lung): > 10 µM
TGI (RPMI-8226 leukemia): > 10 µM

Cn1c2ccccc2c2c(=O)n(CCCC(=O)OC(=NC3CCCCC3)NC3CCCCC3)c3c(-c4ccccc4)nnn3c21
GI50 (HS 578T breast): > 100 µM
TGI (HS 578T breast): > 100 µM
GI50 (UACC-62 melanoma): > 100 µM
TGI (UACC-62 melanoma): > 100 µM
GI50 (HCC-2998 colon): > 100 µM
TGI (HCC-2998 colon): > 100 µM
GI50 (PC-3 prostate): > 100 µM
TGI (PC-3 prostate): > 100 µM
GI50 (A498 renal): 65.8 µM
TGI (A498 renal): > 100 µM
GI50 (SK-MEL-2 melanoma): > 100 µM
TGI (SK-MEL-2 melanoma): > 100 µM
GI50 (NCI-H460 lung): > 100 µM
TGI (NCI-H460 lung): > 100 µM
GI50 (RPMI-8226 leukemia): > 100 µM
TGI (RPMI-8226 leukemia): > 100 µM

Fc1ccc(Nc2nc3ccccc3c3occc23)cc1
GI50 (HS 578T breast): 14.3 µM
TGI (HS 578T breast): 33.1 µM
GI50 (UACC-62 melanoma): 12.3 µM
TGI (UACC-62 melanoma): 24.8 µM
GI50 (HCC-2998 colon): 1.96 µM
TGI (HCC-2998 colon): 7.31 µM
GI50 (PC-3 prostate): 7.07 µM
TGI (PC-3 prostate): 20 µM
GI50 (HOP-92 NSCLC): 5.8 µM
TGI (HOP-92 NSCLC): 19.4 µM
GI50 (SK-MEL-2 melanoma): 11.9 µM
TGI (SK-MEL-2 melanoma): 27.6 µM
GI50 (HL-60(TB) leukemia): 10.8 µM
TGI (HL-60(TB) leukemia): 36.8 µM
GI50 (NCI-H460 lung): 4.61 µM
TGI (NCI-H460 lung): 19 µM
GI50 (RPMI-8226 leukemia): 3.56 µM
TGI (RPMI-8226 leukemia): 15 µM

COc1ccc(CCc2cc(OC)c(O)c(OC)c2)cc1
TGI (UACC-62 melanoma): > 100 µM
TGI (HCC-2998 colon): > 100 µM
TGI (HOP-92 NSCLC): > 100 µM
TGI (SK-MEL-2 melanoma): > 100 µM
TGI (NCI-H460 lung): > 100 µM
TGI (RPMI-8226 leukemia): > 100 µM

C=CCc1c(O)c(C(=O)/C=C/c2ccccc2)c(OC)c2ccoc12
GI50 (HS 578T breast): 3.89 µM
TGI (HS 578T breast): 33.8 µM
GI50 (UACC-62 melanoma): 2.74 µM
TGI (UACC-62 melanoma): 9.93 µM
GI50 (HCC-2998 colon): 1.73 µM
TGI (HCC-2998 colon): 3.21 µM
GI50 (PC-3 prostate): 3.68 µM
TGI (PC-3 prostate): 16.8 µM
GI50 (A498 renal): 1.74 µM
TGI (A498 renal): 9.4 µM
GI50 (HOP-92 NSCLC): 1.33 µM
TGI (HOP-92 NSCLC): 4.82 µM
GI50 (SK-MEL-2 melanoma): 3.04 µM
TGI (SK-MEL-2 melanoma): 13.8 µM
GI50 (NCI-H460 lung): 2.79 µM
TGI (NCI-H460 lung): 10.7 µM
GI50 (RPMI-8226 leukemia): 1.88 µM
TGI (RPMI-8226 leukemia): 6.76 µM

c1ccc2c(NCCCCCCNc3cccc4ccccc34)cccc2c1
TGI (UACC-62 melanoma): > 100 µM
TGI (HCC-2998 colon): > 100 µM
TGI (A498 renal): > 100 µM
TGI (HOP-92 NSCLC): > 100 µM
TGI (SK-MEL-2 melanoma): > 100 µM
TGI (HL-60(TB) leukemia): > 100 µM
TGI (NCI-H460 lung): > 100 µM
TGI (RPMI-8226 leukemia): > 100 µM

COC(=O)C(=O)C(C(=O)C(=O)Nc1cc(C)ccc1C)c1nc2ccc(C(=O)c3ccccc3)cc2[nH]c1=O (stereo not given)
TGI (UACC-62 melanoma): > 100 µM
TGI (HCC-2998 colon): > 100 µM
TGI (HOP-92 NSCLC): 91.8 µM
TGI (SK-MEL-2 melanoma): > 100 µM
TGI (RPMI-8226 leukemia): > 100 µM

c1ccc(N/N=C2\NN=C(c3ccccc3)CS2)cc1
TGI (UACC-62 melanoma): 21.5 µM
TGI (HCC-2998 colon): 19.3 µM
TGI (A498 renal): 25.8 µM
TGI (HOP-92 NSCLC): 31.9 µM
TGI (SK-MEL-2 melanoma): 44 µM
TGI (HL-60(TB) leukemia): > 100 µM
TGI (NCI-H460 lung): 51.4 µM

CCCCCCCCCCCCCB(O)O
TGI (UACC-62 melanoma): > 100 µM
GI50 (HCC-2998 colon): > 100 µM and 32 µM
TGI (HCC-2998 colon): > 100 µM and 84.7 µM
TGI (A498 renal): > 100 µM
GI50 (HOP-92 NSCLC): > 100 µM and 25.1 µM
TGI (HOP-92 NSCLC): > 100 µM and 82.9 µM
TGI (SK-MEL-2 melanoma): > 100 µM
TGI (HL-60(TB) leukemia): > 100 µM and 42.5 µM
TGI (NCI-H460 lung): > 100 µM

O=c1c(Cl)cc2nc3ccccc3sc-2c1Cl
TGI (HS 578T breast): > 100 µM
TGI (UACC-62 melanoma): 24.4 µM
TGI (HCC-2998 colon): 34.7 µM
TGI (A498 renal): 80.7 µM
TGI (SK-MEL-2 melanoma): 27.1 µM
TGI (HL-60(TB) leukemia): 38.4 µM
TGI (NCI-H460 lung): 35.1 µM
TGI (RPMI-8226 leukemia): 25.9 µM

COc1cc(/C=C2/C(=O)N(C(=O)OCc3ccccc3)C(Cc3cc(OC)c(OC)c(C)c3OC)C(=O)N2Cc2ccccc2)c(OC)c(C)c1OC (stereo not given)
TGI (UACC-62 melanoma): > 100 µM
TGI (HCC-2998 colon): > 100 µM
TGI (A498 renal): > 100 µM
TGI (HOP-92 NSCLC): > 100 µM
TGI (SK-MEL-2 melanoma): > 100 µM
TGI (HL-60(TB) leukemia): > 100 µM
TGI (NCI-H460 lung): > 100 µM
TGI (RPMI-8226 leukemia): > 100 µM

Cc1ccc2nc(NC(=O)/C(=N\NC(=S)NN)C3C(=O)NC(=S)NC3=O)sc2c1
TGI (UACC-62 melanoma): > 100 µM
TGI (HCC-2998 colon): > 100 µM
TGI (A498 renal): > 100 µM
TGI (HOP-92 NSCLC): > 100 µM
TGI (SK-MEL-2 melanoma): > 100 µM
TGI (HL-60(TB) leukemia): > 100 µM
TGI (NCI-H460 lung): > 100 µM
TGI (RPMI-8226 leukemia): > 100 µM

C=CCN(N=O)C(=O)NCCCCC(NC(C)=O)C(=O)NCc1ccccc1 (stereo not given)
TGI (UACC-62 melanoma): > 100 µM
TGI (A498 renal): > 100 µM
TGI (HOP-92 NSCLC): > 100 µM
TGI (SK-MEL-2 melanoma): > 100 µM
TGI (HL-60(TB) leukemia): > 100 µM
TGI (NCI-H460 lung): > 100 µM
TGI (RPMI-8226 leukemia): > 100 µM

O=C1NC(c2cccc(OCc3ccccc3)c2)Nc2ccccc21 (stereo not given)
TGI (HS 578T breast): 9.83 µM
TGI (UACC-62 melanoma): > 27.1 µM
TGI (HCC-2998 colon): 0.621 µM
TGI (A498 renal): 4.68 µM
TGI (HOP-92 NSCLC): > 100 µM
TGI (SK-MEL-2 melanoma): 30 µM
TGI (HL-60(TB) leukemia): < 0.0428 µM
TGI (NCI-H460 lung): 22.9 µM
TGI (RPMI-8226 leukemia): 1.07 µM

CC1C2CC=CC(=O)[C@@]2(C)CCC12OCCO2 (stereo not given in full)
TGI (UACC-62 melanoma): > 100 µM
TGI (HCC-2998 colon): > 100 µM
TGI (A498 renal): > 100 µM
TGI (HOP-92 NSCLC): > 100 µM
TGI (SK-MEL-2 melanoma): > 100 µM
TGI (NCI-H460 lung): > 100 µM

C/C(=N/Nc1nc(C)cc(=O)[nH]1)C(=O)O
TGI (HS 578T breast): > 100 µM
TGI (UACC-62 melanoma): > 100 µM
TGI (HCC-2998 colon): > 100 µM
TGI (PC-3 prostate): > 100 µM
TGI (A498 renal): > 100 µM
TGI (SK-MEL-2 melanoma): > 100 µM
TGI (HL-60(TB) leukemia): > 100 µM
TGI (NCI-H460 lung): > 100 µM
TGI (RPMI-8226 leukemia): > 100 µM

[O-]c1c2c(nn1-c1ccc(Cl)cc1)c1ccccc1c[n+]2Cc1ccccc1
TGI (UACC-62 melanoma): > 100 µM
TGI (HCC-2998 colon): > 100 µM
TGI (SK-MEL-2 melanoma): > 100 µM
TGI (HL-60(TB) leukemia): > 100 µM
TGI (NCI-H460 lung): > 100 µM
TGI (RPMI-8226 leukemia): > 100 µM

CCN(CC)CCNc1ccc2nc(C)n3c4ccc(O)cc4c(=O)c1c23
TGI (HCC-2998 colon): 1.99 µM
TGI (A498 renal): 13.3 µM
TGI (SK-MEL-2 melanoma): 20.3 µM
TGI (HL-60(TB) leukemia): 2.78 µM
TGI (NCI-H460 lung): 1.83 µM
TGI (RPMI-8226 leukemia): 6.18 µM
